What was measured:
[1] = tested on: 5/6 nephrectomy (5/6Nx) rat model; test: 5/6 nephrectomy (5/6Nx) rat model; format: in vivo, Male Sprague Dawley (SD) rats
Source text: Male Sprague Dawley (SD) rats are used to establish a renal injury-induced anemia model through 5/6 nephrectomy surgery to investigate the erythropoiesis-promoting effect of tafamidis. After a one-week acclimation period, the rats are anesthetized with isoflurane, and the left kidney is exposed through a midline abdominal incision. Ligatures are placed at the upper one-third and lower one-third positions of the kidney, and the corresponding renal tissues outside the ligatures are excised. After a one-week recovery period, the right kidney is excised, with eight rats assigned to the nephrectomy group and the remaining eight rats serving as a non-operated normal control group. At week 4, renal dysfunction in the operated rats is confirmed by assessing serum urea and creatinine levels. Tafamidis and roxadustat are dissolved in a vehicle containing 10% dimethyl sulfoxide (DMSO), 30% polyethylene glycol 400 (PEG 400), 5% Tween-80, 1% hydrochloric acid (113.3 mM), 9% 0.1 N sodium hydroxide, and 45% normal saline. […] Starting from week 6, the tafamidis treatment group and the roxadustat group are orally administered the corresponding compound at 10 mg/kg daily (10 mg orally per day per 1 kg body weight of rat) for four weeks, while the sham-operated group and the 5/6 nephrectomy model (5/6Nx) rats are administered the vehicle based on the same dosing regimen. Hematological analysis is performed weekly, and urine samples are collected on the day following the final treatment, so as to determine urinary total protein (UTP) and urinary creatinine (UCREA). Hematological analysis is performed using the Sysmex Europe XN-2000 automated hematology analyzer, and urinalysis is performed using the Cobas C501 automated analyzer, both using commercially available kits in accordance with the manufacturers' instructions. After sample collection, the rats are euthanized. Statistical significance is determined by one-way analysis of variance (ANOVA), and then a Dunnett's test is performed for comparison with the 5/6Nx group (*P < 0.05, **P < 0.01, ***P < 0.001).

[2] = tested on: aristolochic acid-induced zebrafish model; test: Aristolochic acid-induced zebrafish model: glomerular filtration (whole-body fluorescence of tracer); format: in vivo, Wild-type AB strain zebrafish; details: 1 µM in aqueous solution; normal group 100%, model group 239%
Experimental: Wild-type AB strain zebrafish at 2 days post-fertilization are randomly selected and placed in a 6-well plate, with 30 zebrafish treated in each well (treatment group). Other than the normal control group, all treatment groups are exposed to aristolochic acid in aqueous solution to establish a zebrafish renal anemia model. After treatment at 28 °C for 18 hours, a normal control group and a model control group are set up simultaneously. Tafamidis samples are administered in aqueous solution to the treatment groups separately (at concentrations of 0.1 µM and 1 µM separately). Water is administered to the normal control group and the model control group correspondingly, with a volume of 3 mL per well. After continued treatment at 28 °C for 4 hours, all treatment groups are intravenously injected with a fluorescent tracer (dextran tetramethylrhodamine). After a further 1 day of treatment at 28 °C, 10 zebrafish are randomly selected from each treatment group and photographed under a fluorescence microscope. Data are analyzed and collected using NIS-Elements D 3.20 advanced image processing software, and whole-body fluorescence intensity in the zebrafish is analyzed. Statistical analysis of this indicator is used to evaluate the efficacy of the samples in repairing renal injury. Statistical results are expressed as mean±SE. […]

[3] = tested on: aristolochic acid-induced zebrafish model; test: Aristolochic acid-induced zebrafish model: cardiac erythrocyte staining intensity (renal anemia); format: in vivo, Wild-type AB strain zebrafish; details: 30 hours, normal group 100%, model group 46%
Experimental: Wild-type AB strain zebrafish at 2 days post-fertilization are randomly selected and placed in a 6-well plate, with 30 zebrafish treated in each well (treatment group). Other than the normal control group, all treatment groups are exposed to aristolochic acid in aqueous solution to establish a zebrafish renal anemia model. After treatment at 28 °C for 18 hours, a normal control group and a model control group are set up simultaneously. Tafamidis samples are administered in aqueous solution to the treatment groups separately (at concentrations of 0.1 µM and 1 µM separately). Water is administered to the normal control group and the model control group correspondingly, with a volume of 3 mL per well. After continued treatment at 28 °C for 30 hours, staining is performed using o-dianisidine. After staining, 10 zebrafish are randomly selected from each treatment group and photographed under a dissecting microscope. Data is collected using NIS-Elements D 3.20 advanced image processing software, and the staining intensity of cardiac erythrocytes in the zebrafish is analyzed. The statistical significance of this indicator is used to evaluate the efficacy of the sample in alleviating renal anemia. Statistical analysis is performed using SPSS 26.0 software, and p < 0.05 indicates a statistically significant difference.

[4] = 10 mg/kg daily oral for four weeks, urine on the day after final treatment

Row | UTP excretion levels, increase compared with the 5/6Nx group ([1]; 10 mg/kg daily oral for four weeks, urine on the day after final treatment, p < 0.01) [fold] | RBC levels (erythrocytosis) ([1]; 10 mg/kg daily oral, day 14, against the physiological range of the healthy control group) | Compound | glomerular filtration rate [2] [%] | UTP excretion levels [1, 4] | effect on UCREA [1, 4] | red blood cell (RBC) count ([1]; 10 mg/kg daily oral, week 4, 5/6Nx group 7.7 ± 0.3 × 10^12, p < 0.05) | cardiac red blood cell count ([3]; 0.1 µM in aqueous solution) [%] | cardiac red blood cell count ([3]; 1 µM in aqueous solution) [%]
1 | 3.3 | notable erythrocytosis | Cc1nc(C(=O)NCC(=O)O)c(O)c2ccc(Oc3ccccc3)cc12 [roxadustat] |  |  |  |  |  | 
2 |  |  | O=C(O)c1ccc2nc(-c3cc(Cl)cc(Cl)c3)oc2c1 [tafamidis, 2-(3,5-dichlorophenyl)-1,3-benzoxazole-6-carboxylic acid] | 158 | remain at baseline levels | essentially no effect | 8.2 ± 0.3 × 10^12 cells/L | 60 | 65

Reference: patent EP4813383A1, “USE OF TAFAMIDIS AND PHARMACEUTICALLY ACCEPTABLE SALT THEREOF IN PREVENTION, ALLEVIATION, OR TREATMENT OF DISEASES ASSOCIATED WITH HIF-2a” (Huaya Jiyuan (Shenzhen) Pharmaceutical Co., Ltd., priority 2024, dated 2025)
